The values that follow are results of earlier work, collected in patent US5849746A, “Substituted 1,4-piperazine-heteroaryl derivatives as 5-HT1D receptor agonists” (Merck Sharp & Dohme Ltd., priority 1995, dated 1998).

Data set [1] concerns human 5-HT1Dα and 5-HT1Dβ receptor subtypes. The conditions noted are these: cf. WO-A-91/17174, Table 1.
The conditions of data set [2]: humans, therapeutic doses.

Turning to `CNS(=O)(=O)Cc1ccc2[nH]cc(CCN(C)C)c2c1` [sumatriptan], the “discrimination between human 5-HT1Dα and 5-HT1Dβ receptor subtypes (in words)” value in data set [1] was “barely discriminates between the human 5-HT1Dα and 5-HT1Dβ receptor subtypes”. In addition, the adverse cardiovascular events entry in data set [2] is “certain adverse cardiovascular events”.
